ChEMBL document CHEMBL1136334, “Synthesis and biological evaluation of 4-[(3-methyl-3H-imidazol-4-yl)-(2-phenylethynyl-benzyloxy)-methyl]-benzonitrile as novel farnesyltransferase inhibitor” (Bioorg Med Chem Lett, 2003)

Experiments:
[1] = system: NIH3T3; assay: In vitro reduction of farnesylation in NIH-3T3H-ras cell line.; assay type: functional, cell-based; conditions: Mus musculus
[2] = molecular target: Protein farnesyl/geranylgeranyl transferase (Homo sapiens) (UniProt P49354+P49356+P53609); assay: Selectivity ratio of IC50 Geranylgeranyl transferase to that of IC50 Farnesyltransferase; assay type: protein-complex assay
[3] = molecular target: Geranylgeranyl transferase type I (Homo sapiens, UniProt P49354+P53609); assay: In vitro inhibition of the human Geranylgeranyl transferase-catalyzed incorporation of [3H]GGPP into biotinylated peptide corresponding to the C-terminal of human K-Ras.; assay type: protein-complex assay
[4] = molecular target: Protein farnesyltransferase (Homo sapiens, UniProt P49354+P49356); assay: In vitro inhibition of the human FTase-catalyzed incorporation of [3H]FPP into recombinant Ras CVIM.; assay type: protein-complex assay

| Compound | EC50 [1] [µM] | Selectivity [2] | IC50 [3] [µM] | IC50 [4] [µM] |
| --- | --- | --- | --- | --- |
| Cn1cncc1C(OCc1ccc(C#N)cc1C#Cc1cccc(O)c1)c1ccc(C#N)cc1 (centres undefined) | > 0.0001 | 1300 | 1.3 | 0.001 |
| Cn1cncc1C(OCc1ccc(C#N)cc1/C=C/c1ccccn1)c1ccc(C#N)cc1 (centres undefined) | 0.0231 | 1120 | 1.8 | 0.0016 |
| Cn1cncc1C(OCc1ccc(C#N)cc1C#Cc1ccc([N+](=O)[O-])cc1)c1ccc(C#N)cc1 (centres undefined) | 0.036 | 273 | 0.15 | 0.00055 |
| CCCCCCC#Cc1cc(C#N)ccc1COC(c1ccc(C#N)cc1)c1cncn1C (centres undefined) | > 0.0001 | 178 | 0.16 | 0.0009 |
| Cn1cncc1C(OCc1ccc(C#N)cc1-c1ccc(-c2ccccc2)cc1)c1ccc(C#N)cc1 (centres undefined) | < 0.0001 | 136 | 0.15 | 0.0011 |
| Cn1cncc1C(OCc1ccc(C#N)cc1CCC(C)(C)C)c1ccc(C#N)cc1 (centres undefined) | 0.00054 | 326 | 0.31 | 0.00095 |
| Cn1cncc1C(OCc1ccc(C#N)cc1C#CCCc1ccccc1)c1ccc(C#N)cc1 (centres undefined) | 0.13 | 386 | 0.54 | 0.0014 |
| Cn1cncc1C(OCc1ccc(C#N)cc1/C=C/c1ccc([N+](=O)[O-])cc1)c1ccc(C#N)cc1 (centres undefined) | 0.00224 | 180 | 0.11 | 0.00061 |
| Cn1cncc1C(OCc1ccc(C#N)cc1C#CC1(O)CCCCC1)c1ccc(C#N)cc1 (centres undefined) | 0.00193 | 971 | 0.845 | 0.00087 |
| Cn1cncc1C(OCc1ccc(C#N)cc1C#CCCCCO)c1ccc(C#N)cc1 (centres undefined) | 0.0209 | 941 | 1.6 | 0.0017 |
| Cn1cncc1C(OCc1ccc(C#N)cc1-c1ccccc1)c1ccc(C#N)cc1 (centres undefined) | 0.14 | – | – | – |
| Cn1cncc1C(OCc1ccc(C#N)cc1C#Cc1ccc(C#N)cc1)c1ccc(C#N)cc1 (centres undefined) | 0.0116 | 196 | 0.124 | 0.00063 |
| Cn1cncc1C(OCc1ccc(C#N)cc1-c1ccc(C#N)cc1)c1ccc(C#N)cc1 (centres undefined) | < 0.0001 | 6900 | 9 | 0.0013 |
| Cn1cncc1C(OCc1ccc(C#N)cc1C#Cc1ccccc1)c1ccc(C#N)cc1 (centres undefined) | 0.0001 | 1900 | 1.8 | 0.00095 |
| Cn1cncc1C(OCc1ccc(C#N)cc1C#Cc1ccccn1)c1ccc(C#N)cc1 (centres undefined) | > 0.0001 | 5520 | 16 | 0.0029 |
| Cn1cncc1C(OCc1ccc(C#N)cc1C#CC(C)(C)C)c1ccc(C#N)cc1 (centres undefined) | 0.0769 | 790 | 0.49 | 0.00062 |
| Cn1cncc1C(OCc1ccc(C#N)cc1C#Cc1ccc(-c2ccccc2)cc1)c1ccc(C#N)cc1 (centres undefined) | > 0.0001 | > 1000 | > 10 | 0.01 |
| CCC/C=C/C=C/c1cc(C#N)ccc1COC(c1ccc(C#N)cc1)c1cncn1C (centres undefined) | 0.0167 | 169 | 0.22 | 0.0013 |
